From ChEMBL document CHEMBL3885861, “Open TG-GATES”

Organism: Rattus norvegicus
Experiment: Open TG-GATES - Regimen: Single
Format: toxicity, organism-based, Sprague-Dawley
Parameters: regimen Single, gender Male, age 6 weeks
Conditions: in vivo, po, 30 mg/kg, route gavage, dose level Low; for APTT / Bas / Eos / Fbg / Hb / Ht / Lym / MCH / MCHC / MCV / Mono / Neu / PT / Plat / RBC / Ret / WBC: tissue Blood; for KIDNEY_L / KIDNEY_R / KIDNEY_TOTAL: tissue Kidney; for LIVER: tissue Liver; for A/G / ALP / ALT / AST / BUN / CRE / Ca / Cl / DBIL / GLC / IP / K / LDH / Na / PL / RALB / TBIL / TC / TG / TP / gamma-GTP: tissue Plasma

In the case of `Nc1ccc(Cc2ccc(N)cc2)cc1`, the TERMINAL_BW (3 h) is reported as 209.5 g, the APTT (3 h) is reported as 14.3 s and the Bas (3 h) is reported as 0%. The Eos (3 h) was 0.6%, the Fbg (3 h) was 262.8 mg/dL and the Hb (3 h) was 13 g/dL. It also gave a Ht (3 h) of 38%, a Lym (3 h) of 74.2% and an MCH (3 h) of 21 pg. For the same molecule, the MCHC (3 h) was 34.1%, the MCV (3 h) was 61.4 fL and the Mono (3 h) was 3.6%. The Neu (3 h) was 20.8%, the PT (3 h) was 12 s and the Plat (3 h) was 147.2 x10_4/uL. For the same molecule, the RBC (3 h) was 619 x10_4/ul, the Ret (3 h) was 7.8% and the WBC (3 h) was 100.2 x10_2/uL. The KIDNEY_L (3 h) was 0.9 g, the KIDNEY_R (3 h) was 0.9 g and the KIDNEY_TOTAL (3 h) was 1.8 g. The LIVER (3 h) was 8.8 g, the A/G (3 h) was 0.8 and the ALP (3 h) was 1545.4 IU/L. It also gave an ALT (3 h) of 47.4 IU/L, an AST (3 h) of 81.6 IU/L and a BUN (3 h) of 11 mg/dL. The CRE (3 h) was 0.2 mg/dL, the Ca (3 h) was 10.9 mg/dL and the Cl (3 h) was 105 meq/L. It also gave a DBIL (3 h) of 0.022 mg/dL, a GLC (3 h) of 172 mg/dL and an IP (3 h) of 9.1 mg/dL. For the same molecule, the K (3 h) was 3.8 meq/L, the LDH (3 h) was 65.4 IU/L and the Na (3 h) was 141.2 meq/L. For the same molecule, the PL (3 h) was 138.6 mg/dL, the RALB (3 h) was 2.6 g/dL and the TBIL (3 h) was 0.062 mg/dL. It also gave a TC (3 h) of 73 mg/dL, a TG (3 h) of 79.4 mg/dL and a TP (3 h) of 5.6 g/dL. For the same molecule, the gamma-GTP (3 h) was 1.4 IU/L, the TERMINAL_BW (6 h) was 206.3 g and the APTT (6 h) was 14.7 s. The Bas (6 h) was 0%, the Eos (6 h) was 0.6% and the Fbg (6 h) was 274.6 mg/dL. The Hb (6 h) was 13.2 g/dL, the Ht (6 h) was 38.9% and the Lym (6 h) was 70.8%. It also gave an MCH (6 h) of 21.3 pg, an MCHC (6 h) of 34% and an MCV (6 h) of 62.7 fL. It also gave a Mono (6 h) of 2.2%, a Neu (6 h) of 25.2% and a PT (6 h) of 11.5 s. For the same molecule, the Plat (6 h) was 141.7 x10_4/uL, the RBC (6 h) was 621.2 x10_4/ul and the Ret (6 h) was 8.2%. For the same molecule, the WBC (6 h) was 77.7 x10_2/uL, the KIDNEY_L (6 h) was 0.9 g and the KIDNEY_R (6 h) was 0.9 g. For the same molecule, the KIDNEY_TOTAL (6 h) was 1.8 g, the LIVER (6 h) was 8.6 g and the A/G (6 h) was 0.8. It also gave an ALP (6 h) of 1547 IU/L, an ALT (6 h) of 37.2 IU/L and an AST (6 h) of 74.2 IU/L. It also gave a BUN (6 h) of 7.4 mg/dL, a CRE (6 h) of 0.2 mg/dL and a Ca (6 h) of 10.7 mg/dL. It also gave a Cl (6 h) of 107.2 meq/L, a DBIL (6 h) of 0.022 mg/dL and a GLC (6 h) of 167 mg/dL. For the same molecule, the IP (6 h) was 9.6 mg/dL, the K (6 h) was 4 meq/L and the LDH (6 h) was 52.4 IU/L. It also gave a Na (6 h) of 141.8 meq/L, a PL (6 h) of 146.2 mg/dL and an RALB (6 h) of 2.5 g/dL. For the same molecule, the TBIL (6 h) was 0.074 mg/dL, the TC (6 h) was 81 mg/dL and the TG (6 h) was 61.2 mg/dL. For the same molecule, the TP (6 h) was 5.6 g/dL, the gamma-GTP (6 h) was 1.2 IU/L and the TERMINAL_BW (9 h) was 205 g. For the same molecule, the APTT (9 h) was 13.5 s, the Bas (9 h) was 0% and the Eos (9 h) was 0.8%. The Fbg (9 h) was 260 mg/dL, the Hb (9 h) was 12.8 g/dL and the Ht (9 h) was 37.2%. For the same molecule, the Lym (9 h) was 74%, the MCH (9 h) was 21.3 pg and the MCHC (9 h) was 34.2%. It also gave an MCV (9 h) of 62.1 fL, a Mono (9 h) of 2.4% and a Neu (9 h) of 22%. For the same molecule, the PT (9 h) was 11.8 s, the Plat (9 h) was 138.8 x10_4/uL and the RBC (9 h) was 600 x10_4/ul. The Ret (9 h) was 8.6%, the WBC (9 h) was 106 x10_2/uL and the KIDNEY_L (9 h) was 0.9 g. The KIDNEY_R (9 h) was 0.9 g, the KIDNEY_TOTAL (9 h) was 1.8 g and the LIVER (9 h) was 7.6 g. For the same molecule, the A/G (9 h) was 0.8, the ALP (9 h) was 1400.6 IU/L and the ALT (9 h) was 34.4 IU/L. The AST (9 h) was 75.4 IU/L, the BUN (9 h) was 8.8 mg/dL and the CRE (9 h) was 0.2 mg/dL. The Ca (9 h) was 10.5 mg/dL, the Cl (9 h) was 106.8 meq/L and the DBIL (9 h) was 0.03 mg/dL. It also gave a GLC (9 h) of 167.6 mg/dL, an IP (9 h) of 11.3 mg/dL and a K (9 h) of 4.1 meq/L. The LDH (9 h) was 53.8 IU/L, the Na (9 h) was 143.4 meq/L and the PL (9 h) was 134.6 mg/dL. The RALB (9 h) was 2.5 g/dL, the TBIL (9 h) was 0.094 mg/dL and the TC (9 h) was 76 mg/dL. The TG (9 h) was 50.2 mg/dL, the TP (9 h) was 5.4 g/dL and the gamma-GTP (9 h) was 1.6 IU/L. For the same molecule, the TERMINAL_BW (24 h) was 219.9 g, the APTT (24 h) was 13.8 s and the Bas (24 h) was 0%. It also gave an Eos (24 h) of 1%, a Fbg (24 h) of 278.6 mg/dL and a Hb (24 h) of 13.4 g/dL. It also gave a Ht (24 h) of 38.6%, a Lym (24 h) of 72.2% and an MCH (24 h) of 20.9 pg. The MCHC (24 h) was 34.7%, the MCV (24 h) was 60.2 fL and the Mono (24 h) was 2.6%. It also gave a Neu (24 h) of 23.6%, a PT (24 h) of 11.6 s and a Plat (24 h) of 137.1 x10_4/uL. It also gave an RBC (24 h) of 640.4 x10_4/ul, a Ret (24 h) of 6.5% and a WBC (24 h) of 93 x10_2/uL. The KIDNEY_L (24 h) was 0.9 g, the KIDNEY_R (24 h) was 1 g and the KIDNEY_TOTAL (24 h) was 1.9 g. For the same molecule, the LIVER (24 h) was 10.1 g, the A/G (24 h) was 0.9 and the ALP (24 h) was 1877.6 IU/L. The ALT (24 h) was 44 IU/L, the AST (24 h) was 82 IU/L and the BUN (24 h) was 14.8 mg/dL. It also gave a CRE (24 h) of 0.2 mg/dL, a Ca (24 h) of 11.1 mg/dL and a Cl (24 h) of 105.6 meq/L. The DBIL (24 h) was 0.02 mg/dL, the GLC (24 h) was 168.4 mg/dL and the IP (24 h) was 8 mg/dL. It also gave a K (24 h) of 4 meq/L, an LDH (24 h) of 53.6 IU/L and a Na (24 h) of 143.4 meq/L. The PL (24 h) was 160.2 mg/dL, the RALB (24 h) was 2.7 g/dL and the TBIL (24 h) was 0.046 mg/dL. The TC (24 h) was 92.8 mg/dL, the TG (24 h) was 91.6 mg/dL and the TP (24 h) was 5.7 g/dL. The gamma-GTP (24 h) was 1 IU/L.
